5 molecules from US8399489B2, “Antibacterial piperdine derivatives” (Astrazeneca AB, priority 2005, dated 2013) can be followed below.

SMILES strings stand for the structures. In brackets after ≈: the same amount, converted by molar mass.

As a reminder, the MIC is the least concentration at which growth counts as inhibited.

Holding throughout (type): cell-based
The subject of one assay is SAU516. Briefly: Bacterial susceptibility testing in liquid media (MIC), SAU516. Particulars: strain SAU516; lowest concentration reducing growth by 80% or more; 37 degrees C., 24 hrs. On the procedure: (§1) Compounds were tested for antimicrobial activity by susceptibility testing in liquid media. Compounds were dissolved in dimethylsulfoxide and tested in 10 doubling dilutions in the susceptibility assays. The organisms used in the assay were grown overnight on suitable agar media and then suspended in a liquid medium appropriate for the growth of the organism. The suspension was a 0.5 McFarland and a further 1 in 10 dilution was made into the same liquid medium to prepare the final organism suspension in 100 μL. Plates were incubated under appropriate conditions at 37 degrees C. for 24 hrs prior to reading. The Minimum Inhibitory Concentration was determined as the lowest drug concentration able to reduce growth by 80% or more.

In a further assay the test system is EFM073. The experiment in a line: Bacterial susceptibility testing in liquid media (MIC), EFM073. Particulars: strain EFM073; lowest concentration reducing growth by 80% or more; 37 degrees C., 24 hrs. The protocol: as §1
For the next assay, the system named is HIN446. The experiment in a line: Bacterial susceptibility testing in liquid media (MIC), HIN446. Particulars: strain HIN446; lowest concentration reducing growth by 80% or more; 37 degrees C., 24 hrs. On the procedure:
as §1

The subject of a further assay is MCA445. Briefly: Bacterial susceptibility testing in liquid media (MIC), MCA445. As to conditions: strain MCA445; lowest concentration reducing growth by 80% or more; 37 degrees C., 24 hrs. The protocol: as §1
The test system of a further assay is SPN548. Briefly: Bacterial susceptibility testing in liquid media (MIC), SPN548. Particulars: strain SPN548; lowest concentration reducing growth by 80% or more; 37 degrees C., 24 hrs. On the procedure:
as §1

The subject of another assay is Streptococcus pneumoniae. Briefly: Bacterial susceptibility testing in liquid media (MIC), Streptococcus pneumoniae. As to conditions: lowest concentration reducing growth by 80% or more, 37 degrees C., 24 hrs, read-out: MIC against Streptococcus pneumoniae. On the procedure:
as §1

`CO[C@H]1CN(c2nc3cccc(C(=O)O)c3s2)CC[C@H]1NC(=O)c1[nH]c(C)c(Cl)c1Cl` [Example 294] showed an MIC SAU516 with SAU516 of 0.031 µg/mL (≈ 0.0641 µM). The same molecule gave an MIC EFM073 in the assay on EFM073 of 0.016 µg/mL (≈ 0.0331 µM). This molecule also showed an MIC HIN446 with HIN446 of 0.031 µg/mL (≈ 0.0641 µM). Besides, the MIC MCA445 in the assay on MCA445 amounted to 0.001 µg/mL (≈ 0.00207 µM). Moreover, in the assay with SPN548, the MIC SPN548 was found to be 0.0039 µg/mL (≈ 0.00807 µM).
Take `CO[C@@H]1CN(c2cc(C(=O)O)nc3ccccc23)CC[C@@H]1NC(=O)c1cc(Cl)c(C)[nH]1` (racemic) [Example 60, Cis(±)4-(4-{[(4-chloro-5-methyl-1H-pyrrol-2-yl)carbonyl]amino}-3-methoxypiperidin-1-yl)quinoline-2-carboxylic acid]: the MIC SAU516 in the assay on SAU516 amounted to 2 µg/mL (≈ 4.52 µM). For the same molecule, the MIC EFM073 in the assay with EFM073 worked out at 8 µg/mL (≈ 18.1 µM). In the assay with HIN446, this molecule displayed an MIC HIN446 of 4 µg/mL (≈ 9.03 µM). For the same molecule, the MIC MCA445 in the assay on MCA445 turned out to be 0.25 µg/mL (≈ 0.564 µM). The molecule also yielded an MIC SPN548 against SPN548 of 2 µg/mL (≈ 4.52 µM).
In turn, `CO[C@@H]1CN(c2cc(C(=O)O)ncc2Cl)CC[C@@H]1NC(=O)c1[nH]c(C)c(Cl)c1Cl` (racemic) [Example 315, Cis(±)-5-chloro-4-(4-{[(3,4-dichloro-5-methyl-1H-pyrrol-2-yl)carbonyl]amino}-3-methoxypiperidin-1-yl)pyridine-2-carboxylic acid] displayed an MIC SAU516 against SAU516 of 4 µg/mL (≈ 8.66 µM). The molecule further showed an MIC EFM073 in the assay with EFM073 of 4 µg/mL (≈ 8.66 µM). In the assay on HIN446, this molecule gave an MIC HIN446 of 2 µg/mL (≈ 4.33 µM). Besides, the MIC MCA445 against MCA445 was determined as 0.13 µg/mL (≈ 0.282 µM). This molecule returned an MIC SPN548 against SPN548 of 0.5 µg/mL (≈ 1.08 µM).
Turning to `CO[C@@H]1CN(c2cc(C(=O)O)nc(Cl)n2)CC[C@@H]1NC(=O)c1[nH]c(C)c(Cl)c1Cl` (racemic) [Example 48, Cis(±)2-Chloro-6-(4-{[(3,4-dichloro-5-methyl-1H-pyrrol-2-yl)carbonyl]amino}-3-methoxypiperidin-1-yl)pyrimidine-4-carboxylic acid], in the assay with Streptococcus pneumoniae, the minimum inhibitory concentration (MIC) is 0.13 µg/mL (≈ 0.281 µM).
In turn, `Cc1[nH]c(C(=O)N[C@@H]2CCN(c3cc(C(=O)O)ccn3)C[C@@H]2F)c(Cl)c1Cl` [Example 345, 2-((3S,4R)-4-{[(3,4-dichloro-5-methyl-1H-pyrrol-2-yl)carbonyl]amino}-3-fluoropiperidin-1-yl)isonicotinic acid] returned an MIC SAU516 in the assay on SAU516 of 0.5 µg/mL (≈ 1.2 µM). Further, the MIC EFM073 against EFM073 is 0.13 µg/mL (≈ 0.313 µM). Besides, in the assay on HIN446, the MIC HIN446 stood at 0.25 µg/mL (≈ 0.602 µM). This molecule had an MIC MCA445 in the assay with MCA445 of 0.031 µg/mL (≈ 0.0747 µM). Also, the MIC SPN548 in the assay on SPN548 turned out to be 0.03 µg/mL (≈ 0.0722 µM).
